Test results taken from patent publication US12252469B2, “Crystalline forms of (E)-N-hydroxy-3-(1-(phenylsulfonyl)indolin-5-yl)acrylamide” (ANBOGEN THERAPEUTICS INC., priority 2023, dated 2025).
≈ marks a conversion by molar mass, not a printed value.

Tests used:
[1] = Accelerated stability test of Type A powder; type: physicochemical; details: 40±2° C./75±5% RH
Experimental: Furthermore, a long-term stability test and an accelerated stability test of Type A (in the form of powder) are executed, and the results thereof are shown in Table 19 and Table 20, respectively. More specifically, for the long-term stability test, the packaging and storage condition: package in double PE bags with silica gel in an aluminum bag and in a paper drum; sample quantity: 0.6 g; temperature: 25±2° C.; % relative humidity: 60±5%; frequency of analysis: 0, 1, 2, 3, 6, 9, 12, 18, 24, 36, 48 and 60 months; duration: 60 months. As for the accelerated stability test, the packaging and storage condition: package in double PE bags with silica gel in an aluminum bag and in a paper drum; sample quantity: 0.6 g; temperature: 40±2° C.; % relative humidity: 75±5%; frequency of analysis: 0, 1, 2, 3 and 6 months; duration: 6 months.

[2] = Competitive slurry, inter-conversion of Type A and Type B; type: physicochemical; details: t-Butanol and t-Butanol/H2O, RT; water activity calculated from KF by COSMOlogic
[3] = Solid stability evaluation for 1/2/4 weeks;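 further: Solid-state physical and chemical stability tracked by XRPD for form, KF for water content, and HPLC for purity and assay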
Experimental: Type A/B were stored under the conditions of 60° C., 25° C./60% RH, 25° C./92.5% RH and 40° C./75% RH for 1/2/4 weeks for solid stability evaluation. Amorphous was stored under the conditions of 25° C./60% RH and 40° C./75% RH for 1/2/4 weeks for solid stability evaluation. The physical and chemical stability were evaluated by X-ray powder diffraction (XRPD), thermo gravimetric analysis (TGA)/Karl Fischer (KF), differential scanning calorimetry (DSC)/modulated differential I scanning calorimetry (mDSC), high performance liquid chromatography (HPLC) purity and assay, respectively.
XRPD, TGA, DSC and KF in this example are under the same conditions with those described in Example 2.
Agilent 1260 were utilized and detailed chromatographic conditions are listed in

[4] = Approximate solubility of starting material in 20 solvents at RT; type: physicochemical
Experimental: (peak) with one exotherm at 166.1° C. (peak). Approximate solubility of starting material was determined in 20 solvents at RT. Approximately 2 mg of sample was added into a 3-mL glass vial. Solvents in Table 2 were then added stepwise into the vials until the solids were dissolved visually or a total volume of 2 mL was reached. Solubility results summarized in Table 2 were used to guide the solvent selection in screening experiment design.

DVS water uptake = type: physicochemical
Experimental: DVS was measured via a SMS (Surface Measurement Systems) DVS Intrinsic or Intrinsic Plus. The relative humidity at 25° C. were calibrated against deliquescence point of LiCl, Mg(NO3)2 and KCl.

[5] = all storage conditions, 4 weeks

## O=C(/C=C/c1ccc2c(c1)CCN2S(=O)(=O)c1ccccc1)NO [Type A, (E)-N-hydroxy-3-(1-(phenylsulfonyl)indolin-5-yl) acrylamide]
[1]; 0 months
  Appearance: Pale white powder
  Assay (HPLC) (98.0%~102.0%) (anhydrous basis): 101.6%
  Related substance (HPLC) ABT-301 dimer (NMT 0.5%): 0.03 a/a %
  Related substance (HPLC) Individual unknown Impurity (NMT 0.4%): 0.03%
  Related substance (HPLC) Total Impurities (NMT 1.0%): 0.08%
  Water content (KF) (NMT 4.0%): 2.6%
[1]; 1 month
  Appearance: Pale white powder
  Assay (HPLC) (98.0%~102.0%) (anhydrous basis): 100.2%
  Related substance (HPLC) ABT-301 dimer (NMT 0.5%): 0.03 a/a %
  Related substance (HPLC) Individual unknown Impurity (NMT 0.4%): 0.05%
  Related substance (HPLC) Total Impurities (NMT 1.0%): 0.12%
  Water content (KF) (NMT 4.0%): 2.6%
[1]; 2 months
  Appearance: Pale white powder
  Assay (HPLC) (98.0%~102.0%) (anhydrous basis): 101.2%
  Related substance (HPLC) ABT-301 dimer (NMT 0.5%): 0.03 a/a %
  Related substance (HPLC) Individual unknown Impurity (NMT 0.4%): 0.03%
  Related substance (HPLC) Total Impurities (NMT 1.0%): 0.09%
  Water content (KF) (NMT 4.0%): 2.6%
[1]; 3 months
  Appearance: Pale white powder
  Assay (HPLC) (98.0%~102.0%) (anhydrous basis): 101.8%
  Related substance (HPLC) ABT-301 dimer (NMT 0.5%): 0.03 a/a %
  Related substance (HPLC) Individual unknown Impurity (NMT 0.4%): 0.06%
  Related substance (HPLC) Total Impurities (NMT 1.0%): 0.11%
  Water content (KF) (NMT 4.0%): 2.6%
[1]; 6 months
  Appearance: Pale white powder
  Assay (HPLC) (98.0%~102.0%) (anhydrous basis): 99.8%
  Related substance (HPLC) ABT-301 dimer (NMT 0.5%): 0.03 a/a %
  Related substance (HPLC) Individual unknown Impurity (NMT 0.4%): 0.06%
  Related substance (HPLC) Total Impurities (NMT 1.0%): 0.13%
  Water content (KF) (NMT 4.0%): 2.6%
[2]
  water activity at which the form was obtained in competitive slurry: ≥ 0.37
[3]; 25° C./60% RH, 1 week
  Assay: 96.4%
  Form (XRPD): Type A
  HPLC purity: 99.85 Area %
[3]; 25° C./60% RH, 2 weeks
  Assay: 94.7%
  Form (XRPD): Type A
  HPLC purity: 99.83 Area %
[3]; 25° C./60% RH, 4 weeks
  Assay: 96.4%
  Form (XRPD): Type A
  HPLC purity: 99.84 Area %
  KF (water content): 2.8030%
[3]; 40° C./75% RH, 1 week
  Assay: 96.6%
  Form (XRPD): Type A
  HPLC purity: 99.84 Area %
[3]; 40° C./75% RH, 2 weeks
  Assay: 95.6%
  Form (XRPD): Type A
  HPLC purity: 99.84 Area %
[3]; 40° C./75% RH, 4 weeks
  Assay: 96.1%
  Form (XRPD): Type A
  HPLC purity: 99.85 Area %
  KF (water content): 4.1509%
[3]; 60° C., 1 week
  Assay: 96.2%
  Form (XRPD): Type A
  HPLC purity: 99.83 Area %
[3]; 60° C., 2 weeks
  Assay: 95.0%
  Form (XRPD): Type A
  HPLC purity: 99.76 Area %
[3]; 60° C., 4 weeks
  Assay: 95.7%
  Form (XRPD): Type A
  HPLC purity: 99.82 Area %
  KF (water content): 4.3786%
[3]; Initial
  Assay: 95.6%
  Form (XRPD): Type A
  HPLC purity: 99.84 Area %
  KF (water content): 2.8220%
[3]; […], 1 week
  Assay: 96.3%
  Form (XRPD): Type A
  HPLC purity: 99.85 Area %
[3]; […], 2 weeks
  Assay: 95.6%
  Form (XRPD): Type A
  HPLC purity: 99.84 Area %
[3]; […], 4 weeks
  Assay: 96.5%
  Form (XRPD): Type A
  HPLC purity: 99.85 Area %
  KF (water content): 3.1154%
[3]; [5]
  HPLC purity change after solid stability: no form change, or obvious HPLC purity change
  form change after solid stability: no form change
[4]; THE (as stored; likely THF), organic solvent or mixture, thermodynamic from solid, THE, RT
  solubility: > 44000 µg/mL
[4]; organic solvent or mixture, thermodynamic from solid, 1,4-Dioxane, RT
  solubility: 21000 to 42000 µg/mL (≈ 61 to 122 mM)
[4]; organic solvent or mixture, thermodynamic from solid, 2-MeTHF, RT
  solubility: 2000 to 5000 µg/mL (≈ 5.81 to 14.5 mM)
[4]; organic solvent or mixture, thermodynamic from solid, ACN, RT
  solubility: 9500 to 19000 µg/mL (≈ 27.6 to 55.2 mM)
[4]; organic solvent or mixture, thermodynamic from solid, Acetone, RT
  solubility: > 40000 µg/mL
[4]; organic solvent or mixture, thermodynamic from solid, CHCl3, RT
  solubility: < 1000 µg/mL
[4]; organic solvent or mixture, thermodynamic from solid, DCM, RT
  solubility: 1000 to 2000 µg/mL (≈ 2.9 to 5.81 mM)
[4]; organic solvent or mixture, thermodynamic from solid, DMAc, RT
  solubility: > 40000 µg/mL
[4]; organic solvent or mixture, thermodynamic from solid, DMSO, RT
  solubility: > 40000 µg/mL
[4]; organic solvent or mixture, thermodynamic from solid, EtOAc, RT
  solubility: 2000 to 5000 µg/mL (≈ 5.81 to 14.5 mM)
[4]; organic solvent or mixture, thermodynamic from solid, EtOH, RT
  solubility: 5500 to 11000 µg/mL (≈ 16 to 31.9 mM)
[4]; organic solvent or mixture, thermodynamic from solid, IPA, RT
  solubility: 2000 to 5000 µg/mL (≈ 5.81 to 14.5 mM)
[4]; organic solvent or mixture, thermodynamic from solid, IPAc, RT
  solubility: < 1100 µg/mL
[4]; organic solvent or mixture, thermodynamic from solid, MIBK, RT
  solubility: 2000 to 5000 µg/mL (≈ 5.81 to 14.5 mM)
[4]; organic solvent or mixture, thermodynamic from solid, MTBE, RT
  solubility: < 1000 µg/mL
[4]; organic solvent or mixture, thermodynamic from solid, MeOH, RT
  solubility: 20000 to 40000 µg/mL (≈ 58.1 to 116 mM)
[4]; organic solvent or mixture, thermodynamic from solid, NMP, RT
  solubility: > 40000 µg/mL
[4]; organic solvent or mixture, thermodynamic from solid, Toluene, RT
  solubility: < 1000 µg/mL
[4]; organic solvent or mixture, thermodynamic from solid, n-Heptane, RT
  solubility: < 1000 µg/mL
[4]; water, thermodynamic from solid, H2O, RT
  solubility: < 1000 µg/mL
DVS water uptake; 25° C./80% RH
  water uptake (DVS): 0.1396%
DVS water uptake; after DVS test
  form change after DVS test (XRPD): no form change
